Data published in patent US20240174639A1, “PYRIDINE DERIVATIVES USEFUL AS HCN2 MODULATORS” (King's College London, priority 2021, published 2024).

What was measured:
[1] = Evaluation of CNS penetration: plasma, brain and auditory nerve levels (Example 55); assay type: in vivo; settings: other: injection, guinea pig, 30 min after injection, preliminary, n=2
Experimental: Ivabradine in guinea pig plasma, brain (somatosensory cortex) and auditory nerve were assayed at 30 min after injection, the time used in Example 130. Ratios of total concentrations in preliminary experiments for plasma:brain:auditory nerve were 1:0.12:0.57 (n=2). The small amount (12% of plasma level) detected in brain is largely accounted for by the presence of ivabradine within the vascular supply of the brain. As in other species, therefore, ivabradine is strongly excluded from guinea pig brain because of its hydrophilicity and Pgp substrate activity; see Young, G. T., Emery, E. C., Mooney, […]. […] Pain 155, 1708-1719, (2014).

Black6 mice = settings: mouse, in vivo, ip; cited from earlier work
adult mice = assay type: in vivo; settings: tone pulses 3 kHz to 42 kHz
guinea pigs [2] = assay: Tinnitus, short-term salicylate model, GPIAS test (Example 54); assay type: in vivo; settings: salicylate 350 mg/kg i.p., 2 h, ivabradine 5 mg/kg s.c.
Text: (§1) Tinnitus in guinea pigs was monitored using the gap induced inhibition of the acoustic startle (GPIAS) test (see FIG. 5). GPIAS is reduced when tinnitus was present; see Berger, J. I. et al. Effects of the cannabinoid CB1 agonist ACEA on salicylate ototoxicity, hyperacusis and tinnitus in guinea pigs. Hearing research, (2017), and Coomber, B. et al. Neural changes accompanying tinnitus following unilateral acoustic trauma in the guinea pig. Eur J Neurosci 40, 2427-2441, (2014).
(§2) In FIG. 5, sound stimulus (above) and corresponding pinna reflex (below) are shown in freely moving guinea pigs. Stimuli with no gap and gap are presented in a randomised order. Traces contaminated by movement (the upper trace in “no gap”) were removed before analysis.
Tinnitus was induced within 1-2 hours in humans by high doses of salicylate. A similar short-term tinnitus model was implemented in guinea pigs by i.p. injection of salicylate. In all animals, salicylate caused behavioural inhibition of GPIAS (see bar 2 in FIG. 6).
Salicylate (350 mg/kg, i.p.) impairs behavioural gap detection 2 h after salicylate administration (see bar 2 in of FIG. 6). Gap detection was restored by blocking HCN channels with ivabradine (5 mg/kg, s.c.).

guinea pigs [3] = assay: Tinnitus, noise-exposure model, GPIAS test (Example 54); assay type: in vivo
Text: as §1, §2
The noise-exposure model is more clinically relevant than the salicylate model, as it parallels a common cause of tinnitus in humans. A second important point is that it is long-term, while tinnitus induced by salicylate is rapidly reversed following salicylate exposure.
GPIAS returns following drug wash-out (see bar D in FIG. 7).

## COc1cc2c(cc1OC)CC(=O)N(CCCN(C)C[C@H]1Cc3cc(OC)c(OC)cc31)CC2 [ivabradine]
[1]; auditory nerve / plasma, read-out: ratio of total concentrations auditory nerve:plasma
  Kp at 30 min: 0.57
[1]; brain (somatosensory cortex) / plasma, somatosensory cortex, read-out: ratio of total concentrations brain:plasma
  Kp at 0.5 h: 0.12
Black6 mice
  therapeutic window between analgesia and bradycardia: little therapeutic window
Adult mice
  effect on ABR threshold or latency: no significant difference
Guinea pigs [2]
  effect on GPIAS (behavioural gap detection): reversed GPIAS
Guinea pigs [3]; guinea pigs with impaired GPIAS after unilateral noise exposure, 5 mg/kg s.c.
  effect on reduced GPIAS following noise exposure: rapidly and completely reversed
Guinea pigs [3]; noise-exposed guinea pigs showing no behavioural evidence of tinnitus, n=3
  effect on GPIAS in control experiments: without effect on GPIAS
